Measured values taken from publication PMC8982737, “Discovery of S-217622, a Noncovalent Oral SARS-CoV-2 3CL Protease Inhibitor Clinical Candidate for Treating COVID-19” (Journal of Medicinal Chemistry, 2022).
“And” between values parts separate entries of the source, which are not always exact repeats. Equal values may be shown once.

Assays:
in vivo [1] = conditions: female, cynomolgus monkey
[2] = system: SARS-CoV-2 Gamma strain (hCoV-19/Japan/TY7-501/2021); type: in vivo, BALB/cAJcl mice
SARS-CoV-2 [3] = test: Cellular antiviral activity in the presence of mouse serum; type: cell-based; conditions: Severe acute respiratory syndrome coronavirus 2; extrapolated to 100% mouse serum; read-out: protein-adjusted-EC50 (PA-EC50)
cathepsin L = cathepsin L (Homo sapiens, UniProt P07711); test: Human protease enzyme assay: cathepsin L; type: biochemical
MERS-CoV = test: microbe, parasite or virus in culture; type: cell-based; conditions: Middle East respiratory syndrome-related coronavirus, VeroE6/TMPRSS2, read-out: EC50 against MERS-CoV
cathepsin G = target: T1, cathepsin G (Homo sapiens, UniProt P08311)
T1 sequence (P08311 21-255): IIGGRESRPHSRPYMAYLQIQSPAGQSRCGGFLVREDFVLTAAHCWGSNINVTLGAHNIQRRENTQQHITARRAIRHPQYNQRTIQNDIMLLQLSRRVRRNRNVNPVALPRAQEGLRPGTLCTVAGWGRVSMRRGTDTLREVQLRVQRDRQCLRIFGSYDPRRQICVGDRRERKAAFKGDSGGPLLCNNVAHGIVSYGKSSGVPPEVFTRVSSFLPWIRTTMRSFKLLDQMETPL

caspase-2 = target: T2, caspase-2 (Homo sapiens, UniProt P42575)
T2 sequence (P42575 1-452): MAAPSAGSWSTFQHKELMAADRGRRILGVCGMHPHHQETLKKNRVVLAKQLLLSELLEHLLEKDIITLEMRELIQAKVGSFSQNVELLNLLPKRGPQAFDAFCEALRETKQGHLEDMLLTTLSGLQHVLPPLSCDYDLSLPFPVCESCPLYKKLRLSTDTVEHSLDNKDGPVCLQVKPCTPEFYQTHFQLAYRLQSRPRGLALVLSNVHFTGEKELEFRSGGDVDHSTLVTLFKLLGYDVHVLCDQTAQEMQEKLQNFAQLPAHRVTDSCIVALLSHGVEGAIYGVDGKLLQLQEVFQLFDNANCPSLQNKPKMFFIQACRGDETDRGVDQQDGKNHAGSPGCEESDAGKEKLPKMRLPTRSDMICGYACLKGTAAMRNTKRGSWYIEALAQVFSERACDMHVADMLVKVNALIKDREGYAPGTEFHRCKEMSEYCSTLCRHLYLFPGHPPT

cathepsin D [4] = target: T3, cathepsin D (Homo sapiens, UniProt P07339); conditions: at 100 μM
HIV-1 protease = HIV-1 protease (Human immunodeficiency virus type 1 group M subtype B, UniProt P04585); test: Enzymatic inhibitory activity against HIV-1 protease; type: biochemical
Monkey PK study = conditions: intravenous 0.1 mg/0.2 mL/kg, n = 2, nonfasted
SARS-CoV = test: microbe, parasite or virus in culture; type: cell-based; conditions: Severe acute respiratory syndrome coronavirus, VeroE6/TMPRSS2, read-out: EC50 against SARS-CoV
[5] = male, Sprague-Dawley, rat, in vivo, iv
VeroE6/TMPRSS2 cells = conditions: African green monkey
Dog PK study = conditions: intravenous 0.1 mg/0.2 mL/kg, n = 2, nonfasted
in vitro = conditions: African green monkey
[6] = mouse, in vivo
in vivo [7] = conditions: male, beagle, dog
SARS-CoV-2 [8] = test: microbe, parasite or virus in culture; type: cell-based
[9] = target: T4, human ether-a-go-go-related gene channel (Homo sapiens, UniProt Q12809); test: Human ether-a-go-go-related gene inhibition assay (patch clamp, CHO cells); type: cell-based; conditions: in vitro
T4 construct: expressed in transfected cells; host or cells: Chinese hamster ovary (CHO) cells

chymotrypsin = test: Human protease enzyme assay: chymotrypsin; type: biochemical
Rat PK study = conditions: oral 1 μmol/5 mL/kg, n = 2, nonfasted, listed as S-217622
HCoV-OC43 = test: microbe, parasite or virus in culture; type: cell-based; conditions: Betacoronavirus 1, OC43, MRC5; RT-qPCR, MRC-5 cells, mean; read-out: EC90 against HCoV-OC43
cathepsin D [10] = target: T3, cathepsin D; test: biochemical; conditions: read-out: Inhibitory activity
HCoV-229E = test: microbe, parasite or virus in culture; type: cell-based; conditions: Human coronavirus 229E, MRC5; CPE, MRC-5 cells, mean; read-out: EC50 against HCoV-229E
thrombin = thrombin (Homo sapiens, UniProt P00734); conditions: at 100 μM

Chain of cathepsin L (P07711 114-333): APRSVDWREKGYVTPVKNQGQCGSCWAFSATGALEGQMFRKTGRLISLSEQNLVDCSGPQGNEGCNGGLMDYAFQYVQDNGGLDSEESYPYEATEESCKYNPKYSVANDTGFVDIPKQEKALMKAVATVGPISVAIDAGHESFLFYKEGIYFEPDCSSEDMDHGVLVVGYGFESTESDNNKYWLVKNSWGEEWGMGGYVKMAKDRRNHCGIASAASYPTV
T3 sequence (P07339 65-412): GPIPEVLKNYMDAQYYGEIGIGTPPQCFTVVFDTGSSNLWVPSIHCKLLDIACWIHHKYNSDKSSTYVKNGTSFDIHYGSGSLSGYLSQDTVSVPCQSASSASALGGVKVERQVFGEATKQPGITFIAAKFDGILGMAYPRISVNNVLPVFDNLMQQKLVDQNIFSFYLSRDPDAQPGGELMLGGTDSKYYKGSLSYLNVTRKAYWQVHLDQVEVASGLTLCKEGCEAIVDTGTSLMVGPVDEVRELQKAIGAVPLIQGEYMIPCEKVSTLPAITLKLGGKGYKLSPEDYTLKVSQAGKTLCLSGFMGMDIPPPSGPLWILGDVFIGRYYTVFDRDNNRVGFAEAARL
T4 sequence (Q12809 whole entry): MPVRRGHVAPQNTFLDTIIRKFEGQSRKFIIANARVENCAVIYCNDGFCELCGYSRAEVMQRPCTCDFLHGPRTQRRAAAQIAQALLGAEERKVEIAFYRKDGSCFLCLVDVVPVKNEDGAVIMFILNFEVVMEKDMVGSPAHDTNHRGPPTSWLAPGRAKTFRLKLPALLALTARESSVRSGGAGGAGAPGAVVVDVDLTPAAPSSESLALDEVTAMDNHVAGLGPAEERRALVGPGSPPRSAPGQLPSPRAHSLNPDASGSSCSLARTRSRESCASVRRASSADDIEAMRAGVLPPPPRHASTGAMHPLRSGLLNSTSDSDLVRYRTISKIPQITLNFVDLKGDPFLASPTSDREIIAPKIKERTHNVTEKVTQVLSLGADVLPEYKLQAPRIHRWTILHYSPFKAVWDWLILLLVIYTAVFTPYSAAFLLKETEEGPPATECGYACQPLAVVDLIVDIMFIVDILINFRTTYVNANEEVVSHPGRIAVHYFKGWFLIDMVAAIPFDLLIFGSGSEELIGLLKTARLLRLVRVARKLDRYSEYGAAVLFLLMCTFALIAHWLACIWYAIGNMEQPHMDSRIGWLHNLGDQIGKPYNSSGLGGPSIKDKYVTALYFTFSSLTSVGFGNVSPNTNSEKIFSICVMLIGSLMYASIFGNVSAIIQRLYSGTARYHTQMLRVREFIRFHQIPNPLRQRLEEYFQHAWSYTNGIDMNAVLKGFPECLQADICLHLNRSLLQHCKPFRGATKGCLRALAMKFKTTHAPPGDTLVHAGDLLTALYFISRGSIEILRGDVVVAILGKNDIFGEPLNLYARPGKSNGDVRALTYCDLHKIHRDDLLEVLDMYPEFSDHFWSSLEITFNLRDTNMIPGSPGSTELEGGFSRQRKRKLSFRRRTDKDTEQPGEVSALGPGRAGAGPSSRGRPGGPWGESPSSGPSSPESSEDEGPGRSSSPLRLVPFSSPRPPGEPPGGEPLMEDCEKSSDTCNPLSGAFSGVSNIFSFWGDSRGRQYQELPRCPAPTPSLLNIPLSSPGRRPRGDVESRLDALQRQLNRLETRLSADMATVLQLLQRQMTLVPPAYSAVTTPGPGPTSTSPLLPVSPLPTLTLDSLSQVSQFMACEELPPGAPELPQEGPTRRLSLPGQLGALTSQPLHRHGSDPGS

Which clearance (in vivo [1]; iv, 0.1 mg/kg) does the source give for `Cn1cnc(Cn2c(=O)[nH]/c(=N\c3cc4cn(C)nc4cc3Cl)n(Cc3cc(F)c(F)cc3F)c2=O)n1` [Compound 3, (6E)-6-[(6-Chloro-2-methyl-2H-indazol-5-yl)imino]-3-[(1-methyl-1H-1,2,4-triazol-3-yl)methyl]-1-(2,4,5-trifluorobenzyl)-1,3,5-triazinane-2,4-dione] here?
Its clearance is 0.29 mL/min/kg.

What about the bioavailability (in vivo [1]; po) of the same compound?
Its bioavailability is 106%.

And the clastogenicity (TK6 cells)?
The clastogenicity was “no safety concerns”.

And the lung viral titers ([2]; […], near lower limit of quantification)?
Its lung viral titers is ~1.80.

And the “effect on intrapulmonary (lung) viral titers” value ([2]; mouse, in vivo)?
Its value is “reduced the intrapulmonary viral titers dose-dependently”.

And the EC50 (SARS-CoV-2 [3])?
Its EC50 is 3.93 µM and 2.09 µg/mL.

And the IC50 (cathepsin L)?
The IC50 was > 100000 nM.

And the Inhibitory activity (cathepsin L; at 100 μM)?
Its Inhibitory activity is “no inhibitory activity”.

And the inhibition at 100 µM (cathepsin L; at 100 μM, read-out: Inhibitory activity)?
The inhibition at 100 µM was < 50%.

What about the phototoxicity (BALB/3T3 cells) of the same compound?
The phototoxicity was “no safety concerns”.

What about the EC50 (MERS-CoV) of the same compound?
Its EC50 is 1400 nM.

And the IC50 (cathepsin G)?
The IC50 was > 100000 nM.

What about the IC50 (caspase-2; caspase 2) of the same compound?
Its IC50 is > 100000 nM.

And the Inhibitory activity (caspase-2; caspase 2, at 100 μM)?
Its Inhibitory activity is “no inhibitory activity”.

What about the Inhibitory activity (cathepsin D [4]) of the same compound?
The Inhibitory activity was “no inhibitory activity”.

And the IC50 (HIV-1 protease)?
Its IC50 is > 100000 nM.

And the inhibition at 100 µM (HIV-1 protease; at 100 μM)?
Its inhibition at 100 µM is < 50%.

And the half-life (Monkey PK study; female, cynomolgus monkey, in vivo, iv, 0.1 mg/kg, t1/2, monkey)?
Its half-life is 10 h.

And the t1/2 (Monkey PK study; monkey, listed as S-217622)?
Its t1/2 is “approximately 10 h”.

What about the EC50 (SARS-CoV) of the same compound?
Its EC50 is 210 nM.

And the “CL (total clearance)” value [5]?
The value was 1.70 mL/min/kg.

What about the CC50 (VeroE6/TMPRSS2 cells) of the same compound?
The CC50 was > 100000 nM.

What about the t1/2 (Dog PK study; listed as S-217622) of the same compound?
Its t1/2 is ~30 h.

And the half-life (Dog PK study; male, beagle, in vivo, iv, 0.1 mg/kg, t1/2, dog)?
Its half-life is 29.5 h.

What about the CC50 (in vitro) of the same compound?
Its CC50 is > 100000 nM.

What about the “simulated plasma concentration over time” value ([6]; BALB/cAJcl, 16 mg/kg) of the same compound?
The value was “above the protein-adjusted-EC50”.

And the plasma concentration [6]?
Its plasma concentration is “increased dose-dependently”.

What about the clearance (in vivo [7]; iv, 0.1 mg/kg) of the same compound?
Its clearance is 0.17 mL/min/kg.

And the bioavailability (in vivo [7]; po)?
Its bioavailability is 64.7%.

And the EC50 (SARS-CoV-2 [8]; Severe acute respiratory syndrome coronavirus 2, VeroE6/TMPRSS2, strain hCoV-19/Japan/QHN001/2020 (Alpha, B.1.1.7), mean, read-out: EC50 on cytopathic effects)?
Its EC50 is 310 nM.

What about the EC50 (SARS-CoV-2 [8]; Severe acute respiratory syndrome coronavirus 2, VeroE6/TMPRSS2, strain hCoV-19/Japan/QHN002/2020 (Alpha, B.1.1.7), mean, read-out: EC50 on cytopathic effects) of the same compound?
Its EC50 is 460 nM.

What about the EC50 (SARS-CoV-2 [8]; Severe acute respiratory syndrome coronavirus 2, VeroE6/TMPRSS2, strain hCoV-19/Japan/QK002/2020 (Alpha, B.1.1.7), mean, read-out: EC50 on cytopathic effects) of the same compound?
Its EC50 is 330 nM.

And the EC50 (SARS-CoV-2 [8]; Severe acute respiratory syndrome coronavirus 2, VeroE6/TMPRSS2, strain hCoV-19/Japan/TY7-501/2021 (Gamma, P.1), mean, read-out: EC50 on cytopathic effects)?
Its EC50 is 500 nM.

What about the EC50 (SARS-CoV-2 [8]; Severe acute respiratory syndrome coronavirus 2, VeroE6/TMPRSS2, strain hCoV-19/Japan/TY7-503/2021 (Gamma, P.1), mean, read-out: EC50 on cytopathic effects) of the same compound?
The EC50 was 430 nM.

What about the EC50 (SARS-CoV-2 [8]; Severe acute respiratory syndrome coronavirus 2, VeroE6/TMPRSS2, strain hCoV-19/Japan/TY8-612/2021 (Beta, B.1.351), mean, read-out: EC50 on cytopathic effects) of the same compound?
The EC50 was 400 nM.

What about the EC50 (SARS-CoV-2 [8]; Severe acute respiratory syndrome coronavirus 2, VeroE6/TMPRSS2, strain hCoV-19/Japan/TY11-927-P1/2021 (Delta, B.1.617.2), mean, read-out: EC50 on cytopathic effects) of the same compound?
Its EC50 is 410 nM.

And the EC50 (SARS-CoV-2 [8]; Severe acute respiratory syndrome coronavirus 2, VeroE6/TMPRSS2, strain hCoV-19/Japan/TY38-873/2021 (Omicron, B.1.1.529), mean, read-out: EC50 on cytopathic effects)?
The EC50 was 290 nM.

And the EC50 (SARS-CoV-2 [8]; Severe acute respiratory syndrome coronavirus 2, CPE inhibition assay, VeroE6/TMPRSS2 cells, read-out: VeroE6/TMPRSS2 EC50 (antiviral activity))?
The EC50 was 370 nM.

What about the ether-a-go-go-related gene inhibition [9] of the same compound?
The ether-a-go-go-related gene inhibition was “no safety concerns”.

What about the IC50 (chymotrypsin) of the same compound?
The IC50 was > 100000 nM.

What about the “Oral F (oral bioavailability)” value (Rat PK study) of the same compound?
Its value is 97%.

What about the EC90 (HCoV-OC43) of the same compound?
The EC90 was 74 nM.

What about the inhibition at 100 µM (cathepsin D [10]) of the same compound?
The inhibition at 100 µM was < 50%.

And the EC50 (HCoV-229E)?
The EC50 was 5500 nM.

What about the Inhibitory activity (thrombin) of the same compound?
The Inhibitory activity was “no inhibitory activity”.
